Reference: US12084431B2, “Pharmaceutical salts of pyrimidine derivatives and method of treating disorders” (ARIAD Pharmaceuticals, Inc., priority 2018, dated 2024)
Read-outs that look alike come from different tables or passages of the source.

Key:
[1] = Clinical pharmacokinetics in NSCLC patients, oral once daily; assay type: in vivo, human; settings: for half-life: human, plasma, po
Description: Clinical PK data includes data from the dose escalation portion of the study. Compound (A) has been administered orally once per day in 28-day treatment cycles at dose levels of 5, 10, 20, 40, 80, 120, 160 and 180 mg. […] The dosage identified in milligrams (mg) is based on the weight of the freebase of Compound (A). FIGS. 33, 34 show the mean plasma concentration-time profiles of Compound (A) following oral administration of Compound (A) once per day in NSCLC patients.
Compound (A) is administered orally on an empty stomach once per day continuously.

[2] = system: advanced NSCLC (EGFR exon 20 insertions); assay: Phase 1/2 study, antitumor activity / disease assessment by RECIST v1.1; assay type: in vivo, human
Description: 52 patients were enrolled as of 30 Jan. 2018.
Disease stabilization started to be reported at the 40 mg QD cohort. Disease assessments for patients who had at least one disease assessment following treatment with Compound (A) are shown in Table 21. All patients who responded have EGFR exon 20 insertion mutations and had previously been treated with platinum-based chemotherapy, EGFR TKIs, or PD-1 inhibitors.

[3] = Phase 1/2 study, safety (adverse events, dose limiting toxicities, MTD)
Description: Patients with advanced NSCLC refractory to standard therapy received daily oral doses (5-120 mg) of Compound (A) in the dose-escalation phase. Compound (A) was provided as polymorphic Form-I of the succinate salt of Compound (A). Compound (A) was formulated as a drug-in-capsule with no excipients and administered orally. Preliminary antitumor activity (by RECIST v1.1), safety and pharmacokinetics are reported for patients receiving at least one dose.
As part of the same phase ½ study as described in Example 12, a dose escalation study was performed. […] 2018.
The phase 2 portion of the study was initiated to expand the study in two 160 mg QD cohorts (EGFR exon 20 mutant NSCLC patients with or without brain metastases) and continue to enroll more patients in the 120 mg cohort.

[4] = Single rising dose study in healthy subjects (safety, food effect, relative bioavailability); assay type: in vivo, human
Source text: This study is a randomized, double-blind, placebo-controlled single rising dose study (Part 1), followed by an open-label, crossover evaluation of the effects of a low-fat meal on the pharmacokinetics (PK) of Compound (A) (Part 2), and a crossover evaluation of the relative bioavailability of Compound (A) drug-in-capsule (DiC) (test) versus DiC (reference) in healthy subjects (Part 3).

[5] = Stability stress testing (ambient light, 40° C./75% RH, 80° C., 7 days; XRPD and HPLC purity); assay type: physicochemical
Description: Approximately 5 mg of the appropriate samples were placed into 2 mL clear glass vials and the vials were all stored open under the conditions of ambient light, 40° C./75% RH, and 80° C. for 7 days, respectively. The ambient light sample was left open on the bench at room temperature. The 80° C. sample was placed open into an 80° C. oven.

physchem = settings: pH 6.97, water, thermodynamic from solid
Description: (§1) The resulting solid material was isolated by centrifugation and analyzed by XRPD, while the filtrate was analyzed by HPLC for concentration determination. The pH of the resulting filtrate was also determined.

[6] = Vapour sorption analysis (GVS, hygroscopicity); assay type: physicochemical; settings: % uptake at 90% RH
Description: Approximately 10 mg of the sample was placed into a mesh vapor sorption balance pan and loaded into an IGASorp Moisture Sorption Analyzer balance by Hiden Analytical. The sample was subjected to a ramping profile from 40 to 90% relative humidity (RH) at 10% increments to 90% RH, maintaining the sample at each step until a stable weight had been achieved (98% step completion). After completion of the sorption cycle, the sample was dried using the same procedure (initially from 90% RH to 0% RH and finally taken back to the starting point of 40% RH). The sorption/desorption profiles were then repeated to give a double-cycle plot. The weight changes during the sorption/desorption cycles were plotted, allowing for the hygroscopic nature of the sample to be determined.

[7] = Thermodynamic aqueous solubility studies (de-ionized water, 24 h, HPLC concentration, filtrate pH, XRPD of solid); settings: pH of filtrate after 24 h slurry in de-ionized water (pH 6.97), ambient temperature
Description: as §1

[8] = 80 mg QD cohort, oral, NSCLC patients, RECIST v1.1
[9] = 120 mg QD cohort, oral, NSCLC patients, RECIST v1.1

Compound: C=CC(=O)Nc1cc(Nc2ncc(C(=O)OC(C)C)c(-c3cn(C)c4ccccc34)n2)c(OC)cc1N(C)CCN(C)C [Compound (A), propan-2-yl 2-[5-(acryloylamino)-4-{[2-(dimethylamino)ethyl](methyl)amino}-2-methoxyanilino]-4-(1-methyl-1H-indol-3-yl)pyrimidine-5-carboxylate]
- accumulation, peak/trough ratio and molar metabolite/parent Cav ratios of the two active metabolites versus dose ([1]; 5 to 180 mg QD, suggesting no obvious trend of time-dependent inhibition or auto-induction): independent of Compound (A) dose
- AUC24 dependence on dose ([1]; Cycle 2 Day 1, multiple dose, 5 to 180 mg QD): increased in an approximately dose-proportional manner
- AUC0-24,ss dependence on dose ([1]; NSCLC patients, daily oral doses 5-120 mg, first results): increased in a dose-proportional manner
- half-life ([1]; NSCLC patients, daily oral doses 5-120 mg, first results, read-out: effective t1/2 (converted)): ~16 h
- half-life ([1]; oral QD, NSCLC patients, read-out: effective half-life based on accumulation, geometric mean (converted)): ~15 h
- half-life ([1]; oral QD, NSCLC patients, read-out: effective half-life based on accumulation, range): 6 to 27 h
- accumulation in AUC24 ([1]; oral QD): approximately 1.5 fold
- Disease assessments: SD (stable disease), number of patients ([2]; 40 mg QD cohort, oral, NSCLC patients, RECIST v1.1): 3 patients
- additional patients with SD ([2]; 80 mg QD and above, including 1 at 180 mg QD): 6 patients
- objective response ([2]; 80 mg QD and above, 2 confirmed PR at 80 mg QD, 1 confirmed complete response at 120 mg QD, 2 PR awaiting confirmation at 160 mg QD): 5 patients
- Disease assessments: PR (partial response), number of patients [2, 8]: 2 patients
- Disease assessments: SD (stable disease), number of patients [2, 8]: 2 patients
- Disease assessments: CR (complete response), number of patients [2, 9]: 1 patient
- Disease assessments: SD (stable disease), number of patients [2, 9]: 2 patients
- Disease assessments: SD (stable disease), number of patients ([2]; 160 mg QD cohort, oral, NSCLC patients, RECIST v1.1): 1 patient
- Disease assessments: PR (partial response), number of patients ([2]; 160 mg QD cohort, oral, NSCLC patients, RECIST v1.1, unconfirmed): 2 patients ^a
- discontinuation for documented progressive disease (PD) per RECIST version 1.1, patients ([2]; 52 patients, data cut): 26.9%
- progressive disease (PD) as best response ([2]; of 14 evaluable patients, 40 mg n=3, 80 mg n=1, 120 mg n=1): 5 patients
- stable disease (SD) as best response ([2]; of 14 evaluable patients, 40 mg n=3, 80 mg n=2, 120 mg n=1): 6 patients
- partial response (PR) as best response ([2]; of 14 evaluable patients, 80 mg n=2 both confirmed, 120 mg single PR awaiting confirmation): 3 patients
- response (PR, CR) versus prior treatment ([2]; prior therapies including EGFR TKIs and immuno-oncology agents): observed in patients regardless of prior treatment therapies
- maximum tolerated dose (MTD) ([3]; QD, oral, NSCLC patients, dose escalation 5-180 mg QD and 40 mg BID): 160 mg
- discontinuation for adverse event (AE), patients ([3]; human, in vivo): 15.4%
- patients with Grade 3 TEAEs ([3]; human, in vivo): 51.9%
- patients with at least 1 treatment-emergent serious adverse event (SAE) ([3]; human, in vivo): 38.5%
- patients with at least 1 treatment-related SAE ([3]; human, in vivo): 9.6%
- patients with at least 1 treatment-related adverse event (TRAE) ([3]; human, in vivo): 78.8%
- patients with at least one TEAE ([3]; human, in vivo): 88.5%
- dose limiting toxicities ([3]; in vivo): Two dose limiting toxicities, both pneumonitis
- SAEs [4]: No SAEs were reported
- safety and tolerability ([4]; up to a single oral dose of 160 mg): safe and well tolerated

Compound: C=CC(=O)Nc1cc(Nc2ncc(C(=O)OC(C)C)c(-c3cn(C)c4ccccc34)n2)c(OC)cc1N(C)CCN(C)C.Cc1ccc(S(=O)(=O)O)cc1 [Tosylate, isopropyl 2-((5-acrylamido-4-((2-(dimethylamino)ethyl) (methyl)amino)-2-methoxyphenyl)amino)-4-(1-methyl-1H-indol-3-yl)pyrimidine-5-carboxylate tosylate]
- XRPD after storage ([5]; 7 days, all storage conditions (ambient light, 40° C./75% RH, 80° C.)): No change under all storage
- Purity, 40° C./75% RH ([5]; HPLC purity after 7 days, open vial, 40° C./75% RH): 99.4
- Purity, 80° C. ([5]; HPLC purity after 7 days, open vial, 80° C.): 99.4
- Purity, Ambient light ([5]; HPLC purity after 7 days, open vial, ambient light, room temperature): 99.5
- Input purity ([5]; HPLC purity before stress storage): 99.7
- Chemical Stability ([5]; summary in Table 17): Stable
- solubility at 24 h (physchem): 400 µg/mL
- GVS (Hygroscopicity) [6]: 1.4%
- pH at Saturation [7]: 6.38
